Data taken from ChEMBL document CHEMBL4482321, “Compounds and methods for treatment of cancer by inhibiting atg4b and blocking autophagy” (2017).
Active and inactive are the calls of the source. The calls are words filed in the database; no cut-off is given here.

Tests used:
[1] = target: T1, Cysteine protease ATG4B (Homo sapiens, UniProt Q9Y4P1); experiment: Inhibition of ATG4B (unknown origin) incubated up to 1 hr in presence of fluorescent protein substrate by FRET-based-LC3 cleavage assay
T1 sequence (Q9Y4P1 whole entry): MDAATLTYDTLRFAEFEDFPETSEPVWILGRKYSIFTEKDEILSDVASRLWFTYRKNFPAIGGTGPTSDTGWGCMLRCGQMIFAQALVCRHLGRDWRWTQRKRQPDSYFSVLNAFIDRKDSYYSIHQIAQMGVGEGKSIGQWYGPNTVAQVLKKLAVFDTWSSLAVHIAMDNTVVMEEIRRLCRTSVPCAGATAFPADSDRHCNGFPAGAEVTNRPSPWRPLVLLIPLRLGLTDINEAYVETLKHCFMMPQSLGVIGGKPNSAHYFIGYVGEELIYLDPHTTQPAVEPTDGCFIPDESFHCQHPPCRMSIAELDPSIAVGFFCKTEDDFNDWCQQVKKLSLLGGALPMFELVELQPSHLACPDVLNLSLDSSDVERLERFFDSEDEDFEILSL

[2] = test system: MDA-MB-231; experiment: Cytotoxicity against human MDA-MB-231 cells assessed as induction of cell killing incubated for 72 hrs by crystal violet staining based assay; assay type: functional; conditions: MDA-MB-231, 72 h
[3] = Cytotoxicity against human MDA-MB-231-R8 cells assessed as induction of cell killing incubated for 72 hrs by crystal violet staining based assay; assay type: functional
[4] = test system: SUM149PT; experiment: Cytotoxicity against human SUM149PT cells assessed as induction of cell killing incubated for 72 hrs by crystal violet staining based assay; assay type: functional
[5] = Cytotoxicity against human SUM149PT-R75 cells assessed as induction of cell killing incubated for 72 hrs by crystal violet staining based assay; assay type: functional
[6] = target: T2, Cysteine protease ATG4B (Homo sapiens) (UniProt Q9Y4P1); experiment: Inhibition of ATG4B (unknown origin) at 100 uM incubated up to 1 hr in presence of fluorescent protein substrate by FRET-based-LC3 cleavage assay relative to control
T2 sequence (whole entry): T1 sequence (Q9Y4P1 whole entry)

[7] = target: T2, Cysteine protease ATG4B (Homo sapiens); experiment: Inhibition of ATG4B (unknown origin) at 1.6 uM incubated up to 1 hr in presence of fluorescent protein substrate by FRET-based-LC3 cleavage assay relative to control
[8] = test system: K562; experiment: Synergistic cytotoxicity against human K562 cells assessed as reduction in cell viability at 5 to 10 uM in presence of 0.5 uM imatinib incubated for 72 hrs by trypan blue staining based assay relative to compound alone; assay type: functional
[9] = test system: K562; experiment: Synergistic induction of apoptosis in human K562 cells assessed as reduction in cell viability at 5 to 10 uM in presence of 0.5 uM imatinib incubated for 72 hrs by Annexin V-APC and propidium iodide staining based flow cytometry relative to compound alone; assay type: functional
[10] = test system: BV-173; experiment: Cytotoxicity against human BV173 cells assessed as reduction in colony forming cells at 5 to 10 uM in presence of 0.25 to 0.5 uM imatinib incubated for 2 weeks; assay type: functional, cell-based
[11] = species: Homo sapiens; experiment: Cytotoxicity against human CD34+ CML cells obtained from IM-nonresponding patient assessed as reduction in colony forming cells at 10 uM in presence of 5 imatinib incubated for 12 to 14 days; assay type: functional, cell-based
[12] = species: Homo sapiens; experiment: Cytotoxicity against human CD34+ CML cells obtained from IM-nonresponding patient assessed as reduction in colony forming cells at 10 uM in presence of 150 nM DA incubated for 12 to 14 days; assay type: functional, cell-based
[13] = test system: Bone marrow cell; experiment: Cytotoxicity against human CD34+ normal bone marrow cells […] assessed as reduction in colony forming cells up to 10 uM incubated for 12 to 14 days; assay type: cell-based
[14] = test system: MDA-MB-231; experiment: Inhibition of autophagic flux in bafilomycin A-treated human MDA-MB-231 cells assessed as increase in LC3B-II levels at 50 uM by Western blot analysis; assay type: functional, cell-based
[15] = test system: MDA-MB-231; experiment: Inhibition of autophagic flux in wortmannin-treated human MDA-MB-231 cells assessed as increase in LC3B-II levels at 50 uM by Western blot analysis; assay type: functional, cell-based
[16] = test system: MDA-MB-231; experiment: Inhibition of autophagic flux in bafilomycin A-treated human MDA-MB-231 cells assessed as increase in p62 levels at 50 uM by Western blot analysis; assay type: functional, cell-based
[17] = test system: MDA-MB-231; experiment: Inhibition of autophagic flux in wortmannin-treated human MDA-MB-231 cells assessed as increase in p62 levels at 50 uM by Western blot analysis; assay type: functional, cell-based

Row | SMILES | IC50 [1] | IC50 [2] | IC50 [3] | IC50 [4] | IC50 [5] | inhibition [6] | inhibition [7] | also measured
1 | COc1ccc(CNC(=O)Nc2ncc([N+](=O)[O-])s2)cc1 | 1.6 µM | 17.6 to 23.4 µM | 5.92 to 9.09 µM | 15.2 to 22.6 µM | 26 to 35.1 µM |  |  | 
2 | O=C(Nc1ccccc1)Nc1ncc([N+](=O)[O-])s1 |  |  |  |  |  | 21% | 17% | 
3 | O=C(Nc1ncc([N+](=O)[O-])s1)NC(Cc1ccccc1)C(=O)O (stereo not drawn) |  |  |  |  |  | 17% | 0% | 
4 | O=C(NCc1ccccc1)Nc1ncc([N+](=O)[O-])s1 | 1.7 µM | 42.9 to 59.1 µM | 23.3 to 30.8 µM | 25.6 to 33.2 µM | 24.5 to 34.1 µM |  |  | Activity [8]: Active; Activity [9]: Active; Activity [10]: Active; Activity [11]: Active; Activity [12]: Active; Activity [13]: Non-Toxic; Activity [14]: Active; Activity [15]: Active; Activity [16]: Active; Activity [17]: Active
5 | O=C(O)CCC(NC(=O)Nc1ncc([N+](=O)[O-])s1)C(=O)O (stereo not drawn) |  |  |  |  |  | 27% | 10% | 
6 | O=C(Nc1ccccn1)Nc1ncc([N+](=O)[O-])s1 |  |  |  |  |  | 3% | 0% | 
